Measured values from patent US20230405028A1 (priority 2020, published 2023).
Read-outs that look alike come from different tables or passages of the source.

Legend:
[1] = test system: BDNF; assay: BDNF in A-172 cells; type: cell-based; conditions: escalating doses
Source text: (§1) This experiment was designed to explore the synergistic interaction of 5HT2A agonist and a TRP agonists on receptors in the brain that are associated with depression and/or inflammation. […] The development of an inflammatory microenvironment is considered important to the initiation and progression of glioblastoma; however, therapeutic approaches to target inflammation have previously been limited. The abnormal function of IL-6 and IL-8 has been predicted to lead to glioblastoma.
(§2) Thus, unlike the experiments on HSIEC cells described above, no inflammatory treatment was applied to the A-172 cells. The A-172 cells were grown to […] confluence on T-25 flasks to allow a 96-hour duration of exposure of the cells to the compounds of interest

[2] = test system: Human primary small intestinal epithelial cells (HSIEC)
[3] = test system: A-172 glioblastoma cells; assay: MTT cell viability assay in A-172 cells; conditions: for effect on cell growth (MTT, words): A-172, psilocybin 80 μM
[4] = test system: COX-2; assay: COX-2 in A-172 cells; type: cell-based; conditions: 5 μM psilocybin + 25 μM eugenol vs 5 μM psilocybin alone, eugenol alone 25 μM
Source text: as §1, §2

[5] = test system: individuals; assay: Surveys of participants using the formulations (music festival, wellness retreat, home use); conditions: surveys and self-report
Method: Edible chew and capsule formulations including the Base 07—Complete with coffee beans, the 5HT2A agonist alone with corn starch (positive control) or sugar and placebo formulations including corn starch (negative control) or sugar alone (double negative control) were prepared and provided to small groups of individuals for assessment of the effects of the compositions.
The formulations also included additional GRAS material. […] Some studies were undertaken in the context of a music festival. Other studies were undertaken at psilocybin retreat events. Numerous individuals also self-administered the formulations in their personal space and observed their daily routines over an extended number of days of using the formulations. Exclusion criteria were applied in a questionnaire to exclude individuals with a schizophrenia diagnosis, individuals with a family history of schizophrenia, pregnant individuals, minors and other high-risk categories for using psilocybin.
Typically, between 1 and 9 dosage units were provided to each participant per day. The studies varied in duration from one day to four weeks. Heavier individuals (<75 kg) were typically given larger dosages.
On multiple occasions a standard dose of the chocolate format of the complete recipe was distributed prior to a music festival event in Jamaica. […]

[6] = test system: individuals; assay: Minimum effective dose (MED, MED50) and perceived effects of 5HT2A agonist with or without TRP agonists in individuals; type: in vivo, human
[7] = test system: GABA; assay: GABA in A-172 cells; type: cell-based; conditions: escalating doses
Source text: as §1, §2

[8] = test system: iNOS; assay: iNOS in HSIEC cells treated with TNF-α/IFN-γ; type: cell-based, human; conditions: 5, 10, 20, 40 μM

C=CCc1ccc(O)c(OC)c1 [eugenol]
dose resulting in the greatest increase in BDNF [1]: 100 µM
effect on cell growth / cellular metabolic activity (MTT, words) [2]: slight inhibitory effect on cell growth
Cellular Metabolic Activity ([2]; 10 μM, 24 h): 0.064
Cellular Metabolic Activity ([2]; 10 μM, 48 h): 0.168
Cellular Metabolic Activity ([2]; 10 μM, 72 h): 0.346
Cellular Metabolic Activity ([2]; 10 μM, 96 h): 0.632
Cellular Metabolic Activity ([2]; 10 μM, time 0): 0.047
Cellular Metabolic Activity ([2]; 50 μM, 24 h): 0.079
Cellular Metabolic Activity ([2]; 50 μM, 48 h): 0.145
Cellular Metabolic Activity ([2]; 50 μM, 72 h): 0.337
Cellular Metabolic Activity ([2]; 50 μM, 96 h): 0.647
Cellular Metabolic Activity ([2]; 50 μM, time 0): 0.038
Cellular Metabolic Activity ([2]; 100 μM, 24 h): 0.075
Cellular Metabolic Activity ([2]; 100 μM, 48 h): 0.136
Cellular Metabolic Activity ([2]; 100 μM, 72 h): 0.346
Cellular Metabolic Activity ([2]; 100 μM, 96 h): 0.662
Cellular Metabolic Activity ([2]; 100 μM, time 0): 0.038
Cellular Metabolic Activity ([2]; 200 μM, 24 h): 0.064
Cellular Metabolic Activity ([2]; 200 μM, 48 h): 0.111
Cellular Metabolic Activity ([2]; 200 μM, 72 h): 0.296
Cellular Metabolic Activity ([2]; 200 μM, 96 h): 0.652
Cellular Metabolic Activity ([2]; 200 μM, time 0): 0.041
Cellular Metabolic Activity ([2]; 400 μM, 24 h): 0.059
Cellular Metabolic Activity ([2]; 400 μM, 48 h): 0.128
Cellular Metabolic Activity ([2]; 400 μM, 72 h): 0.242
Cellular Metabolic Activity ([2]; 400 μM, 96 h): 0.549
Cellular Metabolic Activity ([2]; 400 μM, time 0): 0.042
Cellular Metabolic Activity ([2]; 800 μM, 24 h): 0.053
Cellular Metabolic Activity ([2]; 800 μM, 48 h): 0.091
Cellular Metabolic Activity ([2]; 800 μM, 96 h): 0.268
Cellular Metabolic Activity ([2]; 800 μM, time 0): 0.042
Cellular Metabolic Activity ([3]; 10 μM, 24 h): 0.137
Cellular Metabolic Activity ([3]; 10 μM, 48 h): 0.234
Cellular Metabolic Activity ([3]; 10 μM, 72 h): 0.329
Cellular Metabolic Activity ([3]; 10 μM, 96 h): 0.533
Cellular Metabolic Activity ([3]; 10 μM, time 0): 0.084
Cellular Metabolic Activity ([3]; 25 μM, 24 h): 0.153
Cellular Metabolic Activity ([3]; 25 μM, 48 h): 0.266
Cellular Metabolic Activity ([3]; 25 μM, 72 h): 0.318
Cellular Metabolic Activity ([3]; 25 μM, 96 h): 0.557
Cellular Metabolic Activity ([3]; 25 μM, time 0): 0.083
Cellular Metabolic Activity ([3]; 50 μM, 24 h): 0.146
Cellular Metabolic Activity ([3]; 50 μM, 48 h): 0.229
Cellular Metabolic Activity ([3]; 50 μM, 72 h): 0.327
Cellular Metabolic Activity ([3]; 50 μM, 96 h): 0.542
Cellular Metabolic Activity ([3]; 50 μM, time 0): 0.086
Cellular Metabolic Activity ([3]; 100 μM, 24 h): 0.170
Cellular Metabolic Activity ([3]; 100 μM, 48 h): 0.230
Cellular Metabolic Activity ([3]; 100 μM, 72 h): 0.322
Cellular Metabolic Activity ([3]; 100 μM, 96 h): 0.516
Cellular Metabolic Activity ([3]; 100 μM, time 0): 0.082
Cellular Metabolic Activity ([3]; 200 μM, 24 h): 0.170
Cellular Metabolic Activity ([3]; 200 μM, 48 h): 0.224
Cellular Metabolic Activity ([3]; 200 μM, 72 h): 0.313
Cellular Metabolic Activity ([3]; 200 μM, 96 h): 0.431
Cellular Metabolic Activity ([3]; 200 μM, time 0): 0.089
Cellular Metabolic Activity ([3]; 400 μM, 24 h): 0.173
Cellular Metabolic Activity ([3]; 400 μM, 48 h): 0.208
Cellular Metabolic Activity ([3]; 400 μM, 72 h): 0.272
Cellular Metabolic Activity ([3]; 400 μM, 96 h): 0.422
Cellular Metabolic Activity ([3]; 400 μM, time 0): 0.088
effect on cell growth (MTT, words) [3]: slight inhibitory effect
effect on COX-2 [4]: increase

CN(C)CCc1c[nH]c2cccc(OP(=O)(O)O)c12 [psilocybin, 3-[2-(dimethylamino)ethyl]-4-phosphoryloxyindole, reference compound]
side effects / tolerance / intoxication [5]: no reports of intoxication or other psychoactive effects to a degree that influenced motor skills or coordination
reduction in the MED50 with TRP agonists added ([6]; FIGS. 6 to 8): ~60%
MED (dose for 100% of individuals to report a psychoactive effect) ([6]; oral, 70 kg individual): over 0.3 g of dried fruiting bodies
doses resulting in the decrease of BDNF [1]: 20 µM
dose resulting in the greatest increase of GABA [7]: 5 µM
effect on cell growth / cellular metabolic activity (MTT, words) [2]: increase growth of cells
Cellular Metabolic Activity ([2]; 5 μM, 24 h): 0.098
Cellular Metabolic Activity ([2]; 5 μM, 48 h): 0.186
Cellular Metabolic Activity ([2]; 5 μM, 72 h): 0.380
Cellular Metabolic Activity ([2]; 5 μM, 96 h): 0.621
Cellular Metabolic Activity ([2]; 5 μM, time 0): 0.047
Cellular Metabolic Activity ([2]; 10 μM, 24 h): 0.107
Cellular Metabolic Activity ([2]; 10 μM, 48 h): 0.198
Cellular Metabolic Activity ([2]; 10 μM, 72 h): 0.388
Cellular Metabolic Activity ([2]; 10 μM, 96 h): 0.624
Cellular Metabolic Activity ([2]; 10 μM, time 0): 0.038
Cellular Metabolic Activity ([2]; 20 μM, 24 h): 0.150
Cellular Metabolic Activity ([2]; 20 μM, 48 h): 0.238
Cellular Metabolic Activity ([2]; 20 μM, 72 h): 0.415
Cellular Metabolic Activity ([2]; 20 μM, 96 h): 0.635
Cellular Metabolic Activity ([2]; 20 μM, time 0): 0.038
Cellular Metabolic Activity ([2]; 40 μM, 24 h): 0.182
Cellular Metabolic Activity ([2]; 40 μM, 48 h): 0.259
Cellular Metabolic Activity ([2]; 40 μM, 72 h): 0.467
Cellular Metabolic Activity ([2]; 40 μM, 96 h): 0.685
Cellular Metabolic Activity ([2]; 40 μM, time 0): 0.041
Cellular Metabolic Activity ([2]; 80 μM, 24 h): 0.345
Cellular Metabolic Activity ([2]; 80 μM, 48 h): 0.371
Cellular Metabolic Activity ([2]; 80 μM, 72 h): 0.579
Cellular Metabolic Activity ([2]; 80 μM, 96 h): 0.805
Cellular Metabolic Activity ([2]; 80 μM, time 0): 0.042
Cellular Metabolic Activity ([2]; 160 μM, 24 h): 0.523
Cellular Metabolic Activity ([2]; 160 μM, 48 h): 0.604
Cellular Metabolic Activity ([2]; 160 μM, 72 h): 0.808
Cellular Metabolic Activity ([2]; 160 μM, 96 h): 1.099
Cellular Metabolic Activity ([2]; 160 μM, time 0): 0.042
Cellular Metabolic Activity ([3]; 5 μM, 24 h): 0.155
Cellular Metabolic Activity ([3]; 5 μM, 48 h): 0.253
Cellular Metabolic Activity ([3]; 5 μM, 72 h): 0.374
Cellular Metabolic Activity ([3]; 5 μM, 96 h): 0.530
Cellular Metabolic Activity ([3]; 5 μM, time 0): 0.090
Cellular Metabolic Activity ([3]; 10 μM, 24 h): 0.181
Cellular Metabolic Activity ([3]; 10 μM, 48 h): 0.269
Cellular Metabolic Activity ([3]; 10 μM, 72 h): 0.363
Cellular Metabolic Activity ([3]; 10 μM, 96 h): 0.577
Cellular Metabolic Activity ([3]; 10 μM, time 0): 0.090
Cellular Metabolic Activity ([3]; 20 μM, 24 h): 0.201
Cellular Metabolic Activity ([3]; 20 μM, 48 h): 0.303
Cellular Metabolic Activity ([3]; 20 μM, 72 h): 0.370
Cellular Metabolic Activity ([3]; 20 μM, 96 h): 0.636
Cellular Metabolic Activity ([3]; 20 μM, time 0): 0.082
Cellular Metabolic Activity ([3]; 40 μM, 24 h): 0.287
Cellular Metabolic Activity ([3]; 40 μM, 48 h): 0.369
Cellular Metabolic Activity ([3]; 40 μM, 72 h): 0.457
Cellular Metabolic Activity ([3]; 40 μM, 96 h): 0.703
Cellular Metabolic Activity ([3]; 40 μM, time 0): 0.086
Cellular Metabolic Activity ([3]; 80 μM, 24 h): 0.469
Cellular Metabolic Activity ([3]; 80 μM, 48 h): 0.528
Cellular Metabolic Activity ([3]; 80 μM, 72 h): 0.586
Cellular Metabolic Activity ([3]; 80 μM, 96 h): 0.871
Cellular Metabolic Activity ([3]; 80 μM, time 0): 0.084
effect on cell growth (MTT, words) [3]: modest increase in cell growth
dose reducing iNOS to the greatest extent [8]: 10 µM
